System: CAGA12 reporter (SMAD3 dependent) in SW1353 chondrocytic cells
Assay: CAGA12 firefly luciferase reporter assay
Type: cell-based
Details: 8 h peptide exposure, firefly normalized to Gaussia luciferase, relative to control (Figure 5B)
Experimental: Figure 5 Molecular characterization of peptides p[63−82] and p[113−132] (A) A pool of OA-HACs (n = 4 donors) was transfected with a scrambled siRNA or with an NKX3-2 siRNA (100 nM siRNA) and cultured for 24 h. Cultures were then exposed to peptide p[63−82] or p[113−132] (100 nM peptide). Samples were harvested 24 h later and analyzed for the expression of the indicated mRNAs (normalized to 28S rRNA). (B) SW1353 chondrocytic cells were transfected with BRE (SMAD1/5/8 reporter) or CAGA12 (SMAD2/3 reporter) firefly luciferase-reporter plasmids. A CMV-Gaussia plasmid was cotransfected as a transfection control. Cells were then cultured for 24 h and subsequently exposed to control, p[63−82], or p[113−132] for 8 h. Firefly and Gaussia bioluminescence were measured in cells and medium (respectively), and relative light units (RLUs) of firefly luciferase were normalized for the Gaussia luciferase signal. The normalized firefly luciferase signal of the control condition was set at 1, and peptide conditions were calculated relative to the control condition (FL/GL). Error bars represent mean ± SEM; statistical significance for peptide conditions versus siScrambled or siNKX3-2 (A) or control condition (B) as determined by unpaired two-tailed Student’s t test is represented as ∗p < 0.05, ∗∗p < 0.01, and ∗∗∗p < 0.001. […]

Row | Substance | CAGA12-reporter activity
1 | H-AAYYSEGESAFPLNSYMNAT-OH [p[63−82]] | diminished
2 | H-SVLYFDDSSNVILKKYRNMV-OH [p[113−132]] | diminished

Reference: article PMC8022858, “Discovery of bone morphogenetic protein 7-derived peptide sequences that attenuate the human osteoarthritic chondrocyte phenotype” (Molecular Therapy. Methods & Clinical Development, 2021)
